These results are taken from ChEMBL document CHEMBL1201862, “PubChem BioAssay data set” (2004).

Among the test systems are OVCAR-4; HCC 2998; UO-31; MOLT-4; NCI-H226; MDA-MB-435; Hs-578T; 786-0; SN12C; SK-OV-3; OVCAR-5; HOP-92; HCT-15; HOP-62; U-251; T47D; UACC-257; SF-295; MCF7; MDA-N.
What all share (assay): inhibition of tumour cell growth, NCI panel, 48 h

SMILES strings stand for the structures.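 Each compound was tested at five concentrations against cells in 96-well plates for 48 hours. GI50 marks 50% less growth.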 Active and inactive are the calls of the source. Rule as the data show it: active = GI50 up to about 1.1 µM and inactive = higher.

Take `Cc1cc2c3c(nc4ccccc42)C(=O)c2ccccc2-c3n1`: the GI50 in the assay with OVCAR-4 was 25.4 µM (inactive); in the assay with HCC 2998, 20.1 µM (inactive); with UO-31, 10.5 µM (inactive); in the assay with MOLT-4 it was 3.34 µM (inactive); in the assay with NCI-H226 it was 21 µM (inactive); in the assay with MDA-MB-435, 1.66 µM (inactive). Also, the GI50 in the assay on Hs-578T is 13.4 µM (inactive); with 786-0 it was 25.5 µM (inactive); in the assay with SN12C, 17 µM (inactive); in the assay with SK-OV-3, 14.8 µM (inactive); in the assay on OVCAR-5, 32 µM (inactive); in the assay with HOP-92, 19.3 µM (inactive). The GI50 in the assay on HCT-15 is 1.35 µM; with HOP-62, 6.18 µM (inactive); in the assay with U-251 it was 16.1 µM (inactive); in the assay on T47D, 12.7 µM (inactive); in the assay with UACC-257, 22.8 µM (inactive); in the assay with SF-295, 10.1 µM (inactive). The GI50 with MCF7 was 10.5 µM (inactive).
On to `C=C(C)[C@H]1C=C[C@@H](OC(C)=O)[C@@]2(COC(C)=O)[C@H](OC(=O)CCC)[C@H]3[C@@H](OC(C)=O)[C@@H](C)C[C@]3(O)C(=O)[C@@](C)(OC(C)=O)[C@H]12`, for which the GI50 in the assay with OVCAR-4 is 35.6 µM (inactive); with HCC 2998 it was 27.1 µM (inactive); in the assay on UO-31 it was 33.4 µM (inactive); in the assay on MOLT-4, 33.6 µM (inactive); with NCI-H226, 40.1 µM (inactive); in the assay on MDA-MB-435, 15.3 µM (inactive). Also, the GI50 was 43.1 µM (inactive) in the assay on Hs-578T; 39.7 µM (inactive) in the assay on 786-0; 36 µM (inactive) in the assay with SN12C; 60.4 µM (inactive) with OVCAR-5; 3.53 µM (inactive) in the assay on HOP-92; 36.2 µM with HCT-15. Further, the GI50 with U-251 was 33.9 µM (inactive); in the assay on T47D, 27 µM (inactive); in the assay on UACC-257 it was 39.4 µM (inactive); with MCF7, 42.3 µM (inactive).
Consider `Cc1nc(O)nc(N/N=C/c2c3ccccc3c(Cl)c3ccccc23)c1C(=O)Nc1ccc(Cl)cc1`, for which the GI50 in the assay on OVCAR-4 is 45.5 µM (inactive); with HCC 2998, 44.6 µM (inactive); in the assay on UO-31, > 100 µM (inactive); in the assay on MOLT-4, 31.3 µM (inactive); in the assay with NCI-H226, 74 µM (inactive); in the assay with MDA-MB-435, > 100 µM (inactive). The GI50 is 36 µM (inactive) in the assay with 786-0; > 100 µM (inactive) in the assay with SN12C; > 100 µM (inactive) in the assay on OVCAR-5; over 100 µM with HCT-15; 34.7 µM (inactive) with HOP-62; 37.9 µM (inactive) in the assay with U-251. In addition, the GI50 with T47D, in the assay on UACC-257, in the assay with MCF7 and with MDA-N was > 100 µM (inactive) in each case.
For the molecule `CC(=O)OCC1OC(n2c(C)c(C(C)=O)c(-c3cccc4ccccc34)c(C#N)c2=S)C(OC(C)=O)C(OC(C)=O)C1OC(C)=O` (stereo not given), the GI50 in the assay with OVCAR-4 was > 100 µM (inactive); with HCC 2998, > 100 µM (inactive); in the assay with UO-31, < 0.01 µM (active); in the assay on MOLT-4 it was > 100 µM (inactive); in the assay with NCI-H226, > 100 µM (inactive); in the assay on MDA-MB-435, > 100 µM (inactive). The GI50 with 786-0 is > 100 µM (inactive); in the assay on SN12C, > 100 µM (inactive); with SK-OV-3, > 100 µM (inactive); in the assay with OVCAR-5, > 100 µM (inactive); with HOP-92, 17.5 µM (inactive); in the assay on HCT-15 it was over 100 µM. Further, the GI50 in the assay with HOP-62, in the assay on U-251, in the assay on T47D, in the assay on UACC-257, in the assay on SF-295 and with MCF7 was > 100 µM (inactive) throughout. Further, in the assay on MDA-N, the GI50 was > 100 µM (inactive).
With `CC(C)(C)Nc1noc(=O)n1C(C)(C)C`, the GI50 with OVCAR-4, with UO-31, in the assay with MOLT-4, with NCI-H226, in the assay on MDA-MB-435 and in the assay on Hs-578T was > 100 µM (inactive) each time. The GI50 was > 100 µM (inactive) in the assay with 786-0; > 100 µM (inactive) in the assay with SN12C; > 100 µM (inactive) with SK-OV-3; > 100 µM (inactive) in the assay on OVCAR-5; > 100 µM (inactive) with HOP-92; over 100 µM in the assay with HCT-15. Also, the GI50 in the assay with HOP-62, in the assay with U-251, with UACC-257, in the assay with SF-295, in the assay with MCF7 and in the assay on MDA-N was > 100 µM (inactive) in each case.
Turning to `O=C1[C@H](O)[C@@H]2C(O)O[C@H]3[C@@H]2N1C[C@H]3[Si](c1ccccc1)(c1ccccc1)c1ccccc1` (stereo not given in full), the GI50 in the assay with OVCAR-4, in the assay with HCC 2998, with UO-31, in the assay with MOLT-4, with NCI-H226 and in the assay with MDA-MB-435 was > 100 µM (inactive) each time. In addition, the GI50 in the assay with 786-0 was > 100 µM (inactive); with SK-OV-3, > 100 µM (inactive); in the assay with OVCAR-5, > 100 µM (inactive); in the assay on HCT-15 it was over 100 µM; in the assay on HOP-62, > 100 µM (inactive); in the assay on U-251, > 100 µM (inactive). Further, the GI50 in the assay with T47D is 29.1 µM (inactive); in the assay on UACC-257, > 100 µM (inactive); in the assay on SF-295, > 100 µM (inactive); with MCF7, > 100 µM (inactive).
As to `Cc1ccc(C2(c3ccc(C)c(O)c3C)CCN(C)CC2)c(C)c1O`, the GI50 in the assay with OVCAR-4 was > 100 µM (inactive); in the assay with UO-31, > 100 µM (inactive); with MOLT-4, > 100 µM (inactive); in the assay with NCI-H226 it was > 100 µM (inactive); with MDA-MB-435, 92.9 µM (inactive); in the assay on Hs-578T, > 100 µM (inactive). In addition, the GI50 in the assay on 786-0 was 51.2 µM (inactive); with SN12C, 37.2 µM (inactive); with OVCAR-5 it was > 100 µM (inactive); in the assay on HOP-92 it was > 100 µM (inactive); in the assay on HCT-15, over 100 µM; in the assay with HOP-62, 51.2 µM (inactive). The GI50 with U-251 is 39.4 µM (inactive); in the assay with T47D, 64.6 µM (inactive); with UACC-257 it was 15.8 µM (inactive); with SF-295, 33.3 µM (inactive); with MDA-N, 58.5 µM (inactive).
`CCC(C(=O)C(=O)OC)P1(=O)OC(C)(C)CN1C(C)(C)C` (stereo not given): the GI50 with OVCAR-4, in the assay on HCC 2998, in the assay on UO-31, in the assay on MOLT-4, in the assay with NCI-H226 and with MDA-MB-435 was > 100 µM (inactive) throughout. Besides, the GI50 is > 100 µM (inactive) with 786-0; > 100 µM (inactive) with SK-OV-3; > 100 µM (inactive) in the assay with OVCAR-5; over 100 µM in the assay with HCT-15; > 100 µM (inactive) in the assay on HOP-62; > 100 µM (inactive) with U-251. The GI50 in the assay on T47D was > 100 µM (inactive); in the assay with UACC-257, > 100 µM (inactive); in the assay with SF-295, > 100 µM (inactive); with MCF7, 26.9 µM (inactive).
On to `CC1=C2C(=O)O[C@@H](c3ccoc3)[C@]2(C)CCC1=O` [FRAXINELLONONE], for which the GI50 with HCC 2998, with UO-31, in the assay on MOLT-4, in the assay on NCI-H226, in the assay with MDA-MB-435 and with 786-0 was > 100 µM (inactive) throughout. Further, the GI50 in the assay on SN12C was > 100 µM (inactive); in the assay with SK-OV-3 it was > 100 µM (inactive); in the assay on OVCAR-5, > 100 µM (inactive); in the assay with HOP-92, > 100 µM (inactive); in the assay on HCT-15, over 100 µM; in the assay with HOP-62 it was > 100 µM (inactive). In addition, the GI50 with U-251, with T47D, with UACC-257, with SF-295, in the assay on MCF7 and in the assay with MDA-N was > 100 µM (inactive) in each case.
For `O=[N+]([O-])c1cccnc1NCC1(CO)CCCC1`, the GI50 in the assay on OVCAR-4 is 36.5 µM (inactive); in the assay with HCC 2998, 18.8 µM (inactive); in the assay with MOLT-4 it was 15.6 µM (inactive); with NCI-H226, 25.6 µM (inactive); in the assay on MDA-MB-435 it was 22.4 µM (inactive); in the assay on Hs-578T, 24.5 µM (inactive). The GI50 in the assay on 786-0 was 26.7 µM (inactive); in the assay on SN12C, 22.3 µM (inactive); in the assay with OVCAR-5 it was 31.6 µM (inactive); with HOP-92, 23.4 µM (inactive); in the assay with HCT-15, 18.5 µM; in the assay on HOP-62, 33 µM (inactive). Besides, the GI50 with U-251 was 16.9 µM (inactive); with UACC-257, 20.6 µM (inactive); in the assay on SF-295 it was 23.8 µM (inactive); in the assay on MCF7 it was 42.7 µM (inactive); with MDA-N, 21.4 µM (inactive).
Regarding `CC(Cc1ccc(O)cc1)NCC(O)c1ccc(O)c(O)c1` (stereo not given), the GI50 in the assay with OVCAR-4 is > 100 µM (inactive); with UO-31, > 100 µM (inactive); with MOLT-4 it was 73.5 µM (inactive); in the assay with NCI-H226, > 100 µM (inactive); with MDA-MB-435, > 100 µM (inactive); in the assay with Hs-578T, > 100 µM (inactive). Besides, the GI50 in the assay on 786-0 was > 100 µM (inactive); with SN12C it was > 100 µM (inactive); with SK-OV-3, > 100 µM (inactive); in the assay with OVCAR-5, > 100 µM (inactive); in the assay with HOP-92 it was > 100 µM (inactive); with HCT-15 it was over 100 µM. Moreover, the GI50 in the assay on HOP-62, in the assay on U-251, in the assay with T47D, in the assay with UACC-257, with SF-295 and in the assay on MCF7 was > 100 µM (inactive) in each case.
